According to US20100022483A1, “Substituted Tetracycline Compounds” (Paratek Pharmaceuticals, Inc., priority 2008, published 2010):
In brackets after ≈: the same amount, converted by molar mass. Where two headings read alike, the source gives them in different places.

Key:
[1] = Mammalian cytotoxicity assay (resazurin), COS-1 cells; assay type: cell-based; conditions: African green monkey, read-out: Cytotox. COS-1
Method in brief: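 Resazurin read-out (0.042 mg/ml, 2 h at 37° C. then 30 min dark, room temperature; fluorescence 535/590 nm) follows 24-hour compound exposure of overnight-seeded cells, serially diluted. IC50 is the concentration giving 50% growth inhibition.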

[2] = test system: gram negative bacteria; assay: In vitro anti-bacterial activity assay (broth dilution MIC), gram negative bacteria; assay type: cell-based, E. coli
Method in brief: (§1)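 Broth dilution MIC following CLSI M7-A2: compounds serially diluted, log-phase test strains added to final ~5×10^5 CFU/ml, incubated ~18 hours at 35° C in ambient air. Plates read on microplate reader or visually; MIC is lowest concentration inhibiting growth.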

[3] = test system: gram positive bacteria; assay: In vitro anti-bacterial activity assay (broth dilution MIC), gram positive bacteria; assay type: cell-based, S. aureus; conditions: 18 h
Method in brief: as §1

[4] = in vitro; assay type: cell-based; conditions: Chinese hamster, Cytotox. CHO-K1
[5] = test system: 3T3 fibroblast cells; assay: In vitro phototoxicity assay (neutral red; UV light-treated vs dark control plates); assay type: cell-based; conditions: for Photo Toxicity UV Tox50: UV light 50 minutes; for Photo Toxicity Dark Tox50: dark control plate
Method in brief: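 Neutral red viability readout (A535 after EtOH/acetic acid extraction) compares paired plates: one exposed 50 min to UV at 1.6–1.8 mW/cm^2, one held in darkness, both dosed with compound in HBSS and recovered overnight. 3T3 fibroblast cells used; phototoxicity taken as the difference.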

[6] = Escherichia coli, 18 h, E. coli D1 209, read-out: Median MIC's G− E. coli D1 209
[7] = Escherichia coli, 18 h, E. coli MG 1655, read-out: Median MIC's G− E. coli MG 1655
[8] = Escherichia coli, ATCC25922, 18 h, E. coli ATCC 25922, read-out: Median MIC's G− E. coli ATCC 25922
[9] = Pseudomonas aeruginosa, 18 h, P. aeruginosa K201 PAO6609, read-out: Median MIC's G− P. aeruginosa K201 PAO6609
[10] = Staphylococcus aureus, S. aureus MRSA5, read-out: Median MIC's G+ S. aureus MRSA5
[11] = Staphylococcus aureus, S. aureus RN450, read-out: Median MIC's G+ S. aureus RN450
[12] = Streptococcus pneumoniae, S. pneumoniae 157E-Strep, read-out: Median MIC's G+ S. pneumoniae 157E-Strep

SMILES | IC50 at 24 h [1] [µM] | MIC [2, 6] [µg/mL] | MIC [2, 7] [µg/mL] | MIC [2, 8] [µg/mL] | MIC [2, 9] [µg/mL] | MIC [3, 10] [µg/mL] | MIC [3, 11] [µg/mL] | MIC [3, 12] [µg/mL] | IC50 at 24 h [4] [µM] | Photo Toxicity UV Tox50 [5] [µM] | Photo Toxicity Dark Tox50 [5] [µM]
CN(C)CCC(=O)c1ccc(O)c2c1C[C@H]1C[C@H]3[C@H](N(C)C)C(O)=C(C(N)=O)C(=O)[C@@]3(O)C(O)=C1C2=O [AV] | > 153 | 64 (≈ 125 µM) | 16 (≈ 31.2 µM) | 8 (≈ 15.6 µM) | 64 (≈ 125 µM) | 0.5 (≈ 0.974 µM) | 0.06 (≈ 0.117 µM) | 0.5 (≈ 0.974 µM) | > 153 | >153.46 | >153.46
CN(C)[C@@H]1C(O)=C(C(N)=O)C(=O)[C@@]2(O)C(O)=C3C(=O)c4c(O)ccc(C(=O)CN5CCN(C6CCCCC6)CC5)c4C[C@H]3C[C@@H]12 [BU] | > 123 | 2 (≈ 3.21 µM) | 0.5 (≈ 0.803 µM) | 1 (≈ 1.61 µM) | 64 (≈ 103 µM) | 1 (≈ 1.61 µM) | 0.13 (≈ 0.209 µM) | 0.06 (≈ 0.0964 µM) | > 123 | >122.93 | >122.93
CN(Cc1cccnc1)Cc1cccc(-c2ccc(O)c3c2C[C@H]2C[C@H]4[C@H](N(C)C)C(O)=C(C(N)=O)C(=O)[C@@]4(O)C(O)=C2C3=O)c1 [BJ] | > 12.3 | 32 (≈ 51.2 µM) | 64 (≈ 102 µM) | 16 (≈ 25.6 µM) | 64 (≈ 102 µM) | 2 (≈ 3.2 µM) | 0.25 (≈ 0.4 µM) | 0.06 (≈ 0.096 µM) | > 25.1 | >122.6 | >122.6
CN(C)[C@@H]1C(O)=C(C(N)=O)C(=O)[C@@]2(O)C(O)=C3C(=O)c4c(O)ccc(-c5cccc(C(=O)NCCN6CCOCC6)c5)c4CC3CC12 (stereo partly drawn) [DC] | > 13.6 | 64 (≈ 99 µM) | 8 (≈ 12.4 µM) | 16 (≈ 24.7 µM) | 64 (≈ 99 µM) | 4 (≈ 6.19 µM) | 0.125 (≈ 0.193 µM) | 0.125 (≈ 0.193 µM) | > 13.6 | >136.18 | >136.18
COCC(=O)c1ccc(O)c2c1C[C@H]1C[C@H]3[C@H](N(C)C)C(O)=C(C(N)=O)C(=O)[C@@]3(O)C(O)=C1C2=O [BW] | > 53.4 | 64 (≈ 132 µM) | 0.5 (≈ 1.03 µM) | 0.5 (≈ 1.03 µM) | 32 (≈ 65.8 µM) | 1 (≈ 2.06 µM) | 0.06 (≈ 0.123 µM) | 0.06 (≈ 0.123 µM) | > 53.4 | >172.1 | >172.1
CN(C)[C@@H]1C(O)=C(C(N)=O)C(=O)[C@@]2(O)C(O)=C3C(=O)c4c(O)ccc(-c5cnc6ccccc6c5)c4C[C@H]3C[C@@H]12 [G] | 15.9 | 64 (≈ 118 µM) | 64 (≈ 118 µM) | 4 (≈ 7.39 µM) | 64 (≈ 118 µM) | 0.5 (≈ 0.923 µM) | 0.06 (≈ 0.111 µM) | 0.06 (≈ 0.111 µM) | 14.8 | 19.29 | >159.48
CN(C)CCCNC(=O)c1ccc(-c2ccc(O)c3c2C[C@H]2C[C@H]4[C@H](N(C)C)C(O)=C(C(N)=O)C(=O)[C@@]4(O)C(O)=C2C3=O)o1 [DH] | > 200 | 64 (≈ 105 µM) | 64 (≈ 105 µM) | 64 (≈ 105 µM) | 64 (≈ 105 µM) | 64 (≈ 105 µM) | 4 (≈ 6.57 µM) | 2 (≈ 3.29 µM) | > 200 | >200 | >200
CC(=O)N1CCN(CC(=O)c2ccc(O)c3c2C[C@H]2C[C@H]4[C@H](N(C)C)C(O)=C(C(N)=O)C(=O)[C@@]4(O)C(O)=C2C3=O)CC1 [BS] | > 145 | 64 (≈ 110 µM) | 32 (≈ 54.9 µM) | 64 (≈ 110 µM) | 64 (≈ 110 µM) | 8 (≈ 13.7 µM) | 1 (≈ 1.72 µM) | 1 (≈ 1.72 µM) | > 145 | >144.92 | >144.92
CN(C)[C@@H]1C(O)=C(C(N)=O)C(=O)[C@@]2(O)C(O)=C3C(=O)c4c(O)ccc(-c5cccc(C(=O)NCCO)c5)c4C[C@H]3C[C@@H]12 [CK] | > 14.7 | 64 (≈ 111 µM) | 64 (≈ 111 µM) | 64 (≈ 111 µM) | 64 (≈ 111 µM) | 8 (≈ 13.9 µM) | 0.125 (≈ 0.216 µM) | 0.125 (≈ 0.216 µM) | > 14.7 | >146.56 | >146.58
